Patent US20230399359A1, “TETRAPEPTIDES, COMPOSITIONS COMPRISING THEM, AND THEIR COSMETIC USE” (Sederma, priority 2020, published 2023)
Residues, ends and D or L forms follow the SMILES beside them. *: point of attachment. Palmitoyl = CCCCCCCCCCCCCCCC(=O)*

Assays:
Format in all cases: cell-based
Collagen I (PIP) = assay: ELISA assay of collagen I synthesis (PIP assay) in normal human fibroblast culture supernatants; settings: NHF, 72 h contact, vs excipient control, weighted by Hoechst viability
Description: (§1) Normal human fibroblasts (NHF) in culture are brought into contact with the products to be tested or their excipient (negative control) for 72 h. At the end of the contact, the culture supernatants are removed, and the syntheses of the dermal macromolecules are estimated by ELISA assays. An estimate of cell viability is carried out by Hoechst assay to weight the obtained data.
Collagen I is evaluated via the PIP assay (carboxy-terminal propeptide of procollagen type I) which is a peptide fragment resulting from the enzymatic degradation of procollagen when the latter is excreted outside the fibroblast (therefore in the culture medium where the assay is carried out).

Fibronectine = assay: ELISA assay of fibronectin synthesis in normal human fibroblast culture supernatants; settings: NHF, 72 h contact, vs excipient control
Description: as §1

Decorine = assay: ELISA assay of decorin synthesis in normal human fibroblast culture supernatants; settings: NHF, 72 h contact, vs excipient control
Description: as §1

Collagen IV = assay: ELISA assay of collagen IV synthesis in normal human fibroblast culture supernatants; settings: NHF, 72 h contact, vs excipient control
Description: as §1

Fibrillin 1 = assay: Immunofluorescence assay of Fibrillin 1 formation by normal human fibroblasts; settings: NHF, five-day incubation, coverage density by image analysis
Description: Normal human fibroblasts (NHF) are cultured for at least 24 hours in fibroblast growth medium containing serum. Once confluence was reached, the cells are seeded, and the actives and corresponding controls diluted in a culture medium are added. At the end of a five-day incubation period, the supernatant is removed, the cells are washed with PBS and fixed. The cells are then incubated with the primary Fibrillin 1 monoclonal antibody (11C1.3) (Thermo Fisher) diluted in blocking buffer at a concentration of 1:200. The cells are incubated. The primary antibody is removed, and the cells are washed with PBS. The secondary antibody was added at a dilution of 1:1000 in blocking buffer, then removed and the cells are washed with PBS. The formation of Fibrillin 1 by the cells is visualized using a fluorescence microscope. The obtained images are analyzed using an image processing software assigning a numerical value to the coverage density.

| Compound | Collagen I (PIP) (Collagen I (PIP); concentrations of 5 to 15 ppm) | Fibronectine (Fibronectine; concentrations of 5 to 15 ppm) | Decorine (Decorine; concentrations of 5 to 15 ppm) | Collagen IV (Collagen IV; concentrations of 5 to 15 ppm) | Fibrillin 1 (significance) (Fibrillin 1; 12.5 ppm) | Collagen I (PIP) (Collagen I (PIP); concentrations of 2 to 3 ppm) | Fibronectine (Fibronectine; concentrations of 2 to 3 ppm) | Decorine (Decorine; concentrations of 2 to 3 ppm) | Collagen IV (Collagen IV; concentrations of 2 to 3 ppm) | Fibrillin 1 (significance) (Fibrillin 1; 2 ppm) |
| --- | --- | --- | --- | --- | --- | --- | --- | --- | --- | --- |
| CCCCCCCCCCCCCCCC(=O)N[C@@H](C)C(=O)N[C@H](C(=O)N1CCC[C@H]1C(=O)NCC(=O)O)C(C)C [Pal-AVPG-OH, palmitoyl-alanyl-valyl-prolyl-glycine] (Palmitoyl-AVPG-OH) | +94% | +38% | +20% | +35% | +121% (p < 0.05) |  |  |  |  |  |
| Pal-VPGA-OH: N-palmitoyl tetrapeptide Val-Pro-Gly-Ala with free C-terminal acid, prepared by the same synthetic process (Palmitoyl-VPGA-OH; SMILES CCCCCCCCCCCCCCCC(=O)N[C@H](C(=O)N1CCC[C@H]1C(=O)NCC(=O)N[C@@H](C)C(=O)O)C(C)C) |  |  |  |  |  | +42% | +115% | +69% | +49% | +92% (p < 0.05) |
